Laboratory results as given in PMC11784096, “Synthesis, antibacterial evaluation and in silico studies of novel 2-(benzo[d]thiazol-2-yl)-N-arylacetamides and their derivatives as potential DHFR inhibitors” (BMC Chemistry, 2025).
≈ marks a conversion by molar mass, not a printed value.

Experiments:
P. aeruginosa [1] = test: Agar diffusion method, inhibition zone diameter; assay type: cell-based, Pseudomonas aeruginosa; conditions: Gram-negative
From the text: (§1) The bacterial growth inhibition activity of most of the newly synthesized compounds was examined against different Gram-positive and Gram-negative strains. The Agar diffusion method was used to assess the antibacterial and antifungal activity. The Gram-negative strains were: E. coli, K. pneumonia, P. aeruginosa and A. baumannii, the Gram-positive strains were: St. aureus, St. mutans and the standard antibiotics were gentamicin, tigecycline and ampicillin.
(§2) The agar-based media plate surface was inoculated by spreading a volume of the microbial inoculum over the entire agar surface.
(§3) Using a sterile cork borer or a tip, a hole with a diameter of 6 to 8 mm was made.
(§4) Using a micropipette, (20 µL) volume of the antimicrobial agent or extract solution at the desired concentration was introduced into the well.
(§5) The inoculated plates were incubated under suitable conditions depending upon the tested microorganism. The antimicrobial agent diffused through the agar medium and inhibited the growth of the microbial strain tested.
(§6) After a suitable incubation period (16 to 48 hours) according to the optimum growth conditions, the resulting inhibition zone diameters (in mm) around the wells were measured to the nearest whole millimeter at the point at which there is a prominent reduction in growth. If growth is insufficient at the recommended times, the plates should be re-incubated and read later.

A. baumannii [2] = test: Minimum inhibition concentration, serial dilution; assay type: cell-based, Acinetobacter baumannii; conditions: 37 °C; for MIC: Acinetobacter baumannii
Protocol: (§7) For each strain, three to five isolated colonies were selected from the fresh agar plate and transferred into a tube containing 3-4 ml of the sterile broth medium. The bacterial suspension was mixed well and incubated at 35-37 °C for 2-6 hours. […] After that, 1 mg of the tested compound (antimicrobial agent) was dissolved in 1 ml of DMSO and a two-fold serial dilution was done using a broth medium. A fixed volume of the prepared bacterial inoculum was added to each tube and incubated at 37 °C for 16-20 hours. The MIC is defined as the lowest concentration of the antimicrobial agent that inhibits visible growth of the tested isolate as observed with the unaided eye.

St. aureus = test: Agar diffusion method, inhibition zone diameter; assay type: cell-based, Staphylococcus aureus; conditions: Gram-positive
From the text: as §1, §2, §3, §4, §5, §6

E. coli [3] = test: Agar diffusion method, inhibition zone diameter; assay type: cell-based, Escherichia coli; conditions: Gram-negative
From the text: as §1, §2, §3, §4, §5, §6

P. aeruginosa [4] = test: Minimum inhibition concentration, serial dilution; assay type: cell-based, Pseudomonas aeruginosa; conditions: 37 °C; for MIC: Pseudomonas aeruginosa
Protocol: as §7

K. pneumonia [5] = test: Agar diffusion method, inhibition zone diameter; assay type: cell-based, Klebsiella pneumonia; conditions: Gram-negative
From the text: as §1, §2, §3, §4, §5, §6

E. coli [6] = test: Minimum inhibition concentration, serial dilution; assay type: cell-based, Escherichia coli; conditions: 37 °C; for MIC: Escherichia coli
Protocol: as §7

A. baumannii [7] = test: Agar diffusion method, inhibition zone diameter; assay type: cell-based, Acinetobacter baumannii; conditions: Gram-negative
From the text: as §1, §2, §3, §4, §5, §6

K. pneumonia [8] = test: Minimum inhibition concentration, serial dilution; assay type: cell-based, Klebsiella pneumonia; conditions: 37 °C; for MIC: Klebsiella pneumoniae
Protocol: as §7

St. mutans = test: Agar diffusion method, inhibition zone diameter; assay type: cell-based; conditions: Gram-positive
From the text: as §1, §2, §3, §4, §5, §6

4-(2-(Benzo[d]thiazol-2-yl)acetamido)benzoic acid [2e]
IZD P. aeruginosa (P. aeruginosa [1]): 36 ± 1 mm | MIC A. baumannii (A. baumannii [2]): 0.125 µg/mL | IZD St. aureus (St. aureus): 20 ± 1 mm | IZD E. coli (E. coli [3]): 35 ± 1 mm | MIC P. aeruginosa (P. aeruginosa [4]): 0.03125 µg/mL | IZD K. pneumonia (K. pneumonia [5]): 36 ± 1 mm | MIC E. coli (E. coli [6]): 0.03125 µg/mL | IZD A. baumannii (A. baumannii [7]): 36 ± 1 mm | MIC K. pneumonia (K. pneumonia [8]): 0.03125 µg/mL

O=C(Nc1ccccc1)C(=Cc1ccccc1)c1nc2ccccc2s1 [4a, 2-(Benzo[d]thiazol-2-yl)-N,3-diphenylacrylamide]
IZD E. coli (E. coli [3]): 11 ± 1 mm

COc1ccc(C=C(C(=O)Nc2ccccc2)c2nc3ccccc3s2)cc1 [4b, 2-(Benzo[d]thiazol-2-yl)-3-(4-methoxyphenyl)-N-phenylacrylamide]
IZD A. baumannii (A. baumannii [7]): 13 ± 1 mm

O=C(Nc1ccccc1)C(=Cc1ccc(Cl)cc1)c1nc2ccccc2s1 [4d, 2-(Benzo[d]thiazol-2-yl)-3-(4-chlorophenyl)-N-phenylacrylamide]
IZD P. aeruginosa (P. aeruginosa [1]): no activity | MIC (A. baumannii [2]): 0.25 µg/mL (≈ 0.64 µM) | IZD E. coli (E. coli [3]): 20 ± 1 mm | IZD K. pneumonia (K. pneumonia [5]): 20 ± 1 mm | MIC (E. coli [6]): 0.125 µg/mL (≈ 0.32 µM) | IZD A. baumannii (A. baumannii [7]): 15 ± 1 mm | MIC (K. pneumonia [8]): 0.125 µg/mL (≈ 0.32 µM)

COc1ccc(C=C(C(=O)Nc2ccc(C)cc2)c2nc3ccccc3s2)cc1 [4f, 2-(Benzo[d]thiazol-2-yl)-3-(4-methoxyphenyl)-N-(p-tolyl)acrylamide]
IZD St. mutans (St. mutans): 18 ± 1.1 mm | IZD P. aeruginosa (P. aeruginosa [1]): 20 ± 1 mm | IZD St. aureus (St. aureus): 25 ± 1.1 mm | IZD E. coli (E. coli [3]): 25 ± 1.1 mm | MIC (P. aeruginosa [4]): 0.125 µg/mL (≈ 0.312 µM) | IZD K. pneumonia (K. pneumonia [5]): 25 ± 1.1 mm | MIC (E. coli [6]): 0.0625 µg/mL (≈ 0.156 µM) | IZD A. baumannii (A. baumannii [7]): 15 ± 1.1 mm | MIC K. pneumonia (K. pneumonia [8]): 0.0625 µg/mL (≈ 0.156 µM) | MIC (K. pneumonia [8]): 0.0312 µg/mL (≈ 0.078 µM)

COc1ccc(C=C(C(=O)Nc2ccc(C)cc2)c2nc3ccccc3s2)cc1OC [4g, 2-(Benzo[d]thiazol-2-yl)-3-(3,4-dimethoxyphenyl)-N-(p-tolyl)acrylamide]
IZD E. coli (E. coli [3]): 18 ± 1 mm

O=C(Nc1ccc(Cl)cc1)C(=Cc1ccccc1)c1nc2ccccc2s1 [4i, 2-(Benzo[d]thiazol-2-yl)-N-(4-chlorophenyl)-3-phenylacrylamide]
IZD P. aeruginosa (P. aeruginosa [1]): no activity | IZD St. aureus (St. aureus): 12 ± 1 mm | IZD E. coli (E. coli [3]): 20 ± 1 mm | IZD K. pneumonia (K. pneumonia [5]): 23 ± 1 mm | MIC (E. coli [6]): 0.125 µg/mL (≈ 0.32 µM) | IZD A. baumannii (A. baumannii [7]): 15 ± 1 mm | MIC (K. pneumonia [8]): 0.125 µg/mL (≈ 0.32 µM)

O=C(Nc1ccc(Cl)cc1)C(=Cc1ccc(OC(=O)c2ccccc2)cc1)c1nc2ccccc2s1 [4o, 4-(2-(Benzo[d]thiazol-2-yl)-3-((4-chlorophenyl)amino)-3-oxoprop-1-en-1-yl)phenyl-benzoate]
IZD K. pneumonia (K. pneumonia [5]): 13 ± 1 mm | IZD A. baumannii (A. baumannii [7]): 10 ± 1 mm

O=C(Nc1ccccc1)C(=Cc1cn(-c2ccccc2)nc1-c1ccccc1)c1nc2ccccc2s1 [6a, 2-(Benzo[d]thiazol-2-yl)-3-(1,3-diphenyl-1H-pyrazol-4-yl)-N-phenylacrylamide]
IZD P. aeruginosa (P. aeruginosa [1]): 23 ± 1 mm | IZD E. coli (E. coli [3]): 20 ± 1 mm | MIC (P. aeruginosa [4]): 0.125 µg/mL (≈ 0.251 µM) | IZD K. pneumonia (K. pneumonia [5]): 20 ± 1 mm | MIC (E. coli [6]): 0.0625 µg/mL (≈ 0.125 µM) | MIC (K. pneumonia [8]): 0.0625 µg/mL (≈ 0.125 µM)

Cc1ccc(-c2nn(-c3ccccc3)cc2C=C(C(=O)Nc2ccccc2)c2nc3ccccc3s2)cc1 [6b, 2-(Benzo[d]thiazol-2-yl)-N-phenyl-3-(1-phenyl-3-(p-tolyl)-1H-pyrazol-4-yl)acrylamide]
IZD K. pneumonia (K. pneumonia [5]): 13 ± 1 mm | IZD A. baumannii (A. baumannii [7]): 10 ± 1 mm

O=C(Nc1ccccc1)C(=Cc1cn(-c2ccccc2)nc1-c1ccc(Cl)cc1)c1nc2ccccc2s1 [6c, 2-(Benzo[d]thiazol-2-yl)-3-(3-(4-chlorophenyl)-1-phenyl-1H-pyrazol-4-yl)-N-phenyl-acrylamide]
IZD A. baumannii (A. baumannii [7]): 13 ± 1 mm

Cc1ccc(NC(=O)C(=Cc2cn(-c3ccccc3)nc2-c2ccccc2)c2nc3ccccc3s2)cc1 [6d, 2-(Benzo[d]thiazol-2-yl)-3-(1,3-diphenyl-1H-pyrazol-4-yl)-N-(p-tolyl)acrylamide]
IZD K. pneumonia (K. pneumonia [5]): 13 ± 1 mm | IZD A. baumannii (A. baumannii [7]): 10 ± 1 mm

Cc1ccc(NC(=O)C(=Cc2cn(-c3ccccc3)nc2-c2ccc(C)cc2)c2nc3ccccc3s2)cc1 [6e, 2-(Benzo[d]thiazol-2-yl)-3-(1-phenyl-3-(p-tolyl)-1H-pyrazol-4-yl)-N-(p-tolyl)acrylamide]
IZD St. aureus (St. aureus): 29 ± 0.5 mm | IZD E. coli (E. coli [3]): 31 ± 1 mm | IZD K. pneumonia (K. pneumonia [5]): 36 ± 0.8 mm

Cc1ccc(-c2nn(-c3ccccc3)cc2C=C(C(=O)Nc2ccc(Cl)cc2)c2nc3ccccc3s2)cc1 [6h, 2-(Benzo[d]thiazol-2-yl)-N-(4-chlorophenyl)-3-(1-phenyl-3-(p-tolyl)-1H-pyrazol-4-yl)acrylamide]
IZD A. baumannii (A. baumannii [7]): 13 ± 1 mm

O=C(Nc1ccc(Cl)cc1)/C(=C\c1cn(-c2ccccc2)nc1-c1ccc(Cl)cc1)c1nc2ccccc2s1 [6i]
IZD St. mutans (St. mutans): 15 ± 1 mm | IZD St. aureus (St. aureus): 14 ± 1 mm | IZD E. coli (E. coli [3]): 18 ± 0.5 mm | IZD A. baumannii (A. baumannii [7]): 19 ± 0.5 mm

N#Cc1c(-c2ccccc2)c(-c2nc3ccccc3s2)c(=O)n(-c2ccccc2)c1N [11a, 2-Amino-5-(benzo[d]thiazol-2-yl)-6-oxo-1,4-diphenyl-1,6-dihydropyridine-3-carbonitrile]
IZD St. mutans (St. mutans): 15 ± 1 mm | IZD St. aureus (St. aureus): 14 ± 1 mm | IZD E. coli (E. coli [3]): 18 ± 0.5 mm | IZD A. baumannii (A. baumannii [7]): 19 ± 0.5 mm

COc1ccc(-c2c(C#N)c(N)n(-c3ccccc3)c(=O)c2-c2nc3ccccc3s2)cc1 [11b, 2-Amino-5-(benzo[d]thiazol-2-yl)-4-(4-methoxyphenyl)-6-oxo-1-phenyl-1,6-dihydro-pyridine-3-carbonitrile]
IZD E. coli (E. coli [3]): 19 ± 1 mm | IZD A. baumannii (A. baumannii [7]): 15 ± 1 mm

COc1ccc(-c2c(C#N)c(N)n(-c3ccc(C)cc3)c(=O)c2-c2nc3ccccc3s2)cc1 [11d, 2-Amino-5-(benzo[d]thiazol-2-yl)-4-(4-methoxyphenyl)-6-oxo-1-(p-tolyl)-1,6-dihydro-pyridine-3-carbonitrile]
IZD P. aeruginosa (P. aeruginosa [1]): 13 ± 1 mm | IZD E. coli (E. coli [3]): 35 ± 1 mm | IZD K. pneumonia (K. pneumonia [5]): 23 ± 1 mm | MIC (E. coli [6]): 0.0315 µg/mL (≈ 0.0678 µM) | IZD A. baumannii (A. baumannii [7]): 10 ± 1 mm | MIC (K. pneumonia [8]): 0.0625 µg/mL (≈ 0.135 µM)

COc1ccc(-c2c(C#N)c(N)n(-c3ccc(Cl)cc3)c(=O)c2-c2nc3ccccc3s2)cc1 [11f, 2-Amino-5-(benzo[d]thiazol-2-yl)-1-(4-chlorophenyl)-4-(4-methoxyphenyl)-6-oxo-1,6-dihydropyridine-3-carbonitrile]
IZD St. mutans (St. mutans): 20 ± 1.1 mm | IZD P. aeruginosa (P. aeruginosa [1]): 16 ± 1 mm | IZD St. aureus (St. aureus): 20 ± 1.1 mm | IZD E. coli (E. coli [3]): 17 ± 1.1 mm | IZD K. pneumonia (K. pneumonia [5]): 20 ± 1.1 mm | IZD A. baumannii (A. baumannii [7]): 15 ± 1.1 mm

CNC(C)C1CCC(N)C(OC2C(N)CC(N)C(OC3OCC(C)(O)C(NC)C3O)C2O)O1 (stereo not drawn) [Gentamicin, reference compound]
IZD P. aeruginosa (P. aeruginosa [1]): 32 ± 0.4 mm | MIC (A. baumannii [2]): 0.0312 µg/mL (≈ 0.0654 µM) | IZD E. coli (E. coli [3]): 27 ± 0.1 mm | MIC (P. aeruginosa [4]): 0.0312 µg/mL (≈ 0.0654 µM) | IZD K. pneumonia (K. pneumonia [5]): 29 ± 0.5 mm | MIC (E. coli [6]): 0.0312 µg/mL (≈ 0.0654 µM) | MIC (K. pneumonia [8]): 0.0625 µg/mL (≈ 0.131 µM)

CN(C)c1cc(NC(=O)CNC(C)(C)C)c(O)c2c1C[C@H]1C[C@H]3[C@H](N(C)C)C(O)=C(C(N)=O)C(=O)[C@@]3(O)C(O)=C1C2=O [Tigecycline, reference compound]
MIC (A. baumannii [2]): 0.0312 µg/mL (≈ 0.0534 µM) | IZD A. baumannii (A. baumannii [7]): 23 ± 0.4 mm
